Columns and labels:
hepatitis C virus = assay: HCVcc infectivity in Huh-7 cells infected by hepatitis C virus (luminescence); type: cell-based
Procedure: Huh-7 cells are infected by hepatitis C virus for 3 hours. After infection, surplus hepatitis C virus are washed, followed by adding a medium with 10% fetal bovine serum (FBS) and the treatment shown in TABLE 5 for 72 hours. The resulting media is collected and the luminescence level is analyzed to evaluate HCVcc infectivity. Specifically, group F2 is treated with dimethyl sulfoxide (DMSO), group F3 is treated with interferon-α (IFN-α), a conventional medication for treating hepatitis C, group F4 is treated with PVP, group F5 is treated with the conventional silibinin dissolved in DMSO, group F6 is treated with the conventional silibinin dissolved in water, and group F7 is treated with the silibinin nanoparticle of the invention dissolved in water.

[1] = system: Sprague-Dawley (SD) male rats; assay: Safety test in SD rats, administration via gastrostomy for 15 days; conditions: rat, in vivo
Procedure: (§1) Sprague-Dawley (SD) male rats (6 week-old) purchased from BioLASCO Taiwan Co., Ltd. are used in trials (D) and (E). The SD rats are housed on a 12-hours light and 12-hours dark cycle in an animal room kept at a constant temperature of 25±1° C. and constant humidity of 55±5%. The SD rats are housed for several days before being administered the silibinin nanoparticle of the invention via gastrostomy in a dosage shown in TABLE 3.
With reference to FIG. 6B, after being administered the silibinin nanoparticle of the invention for 15 days, all of the SD rats of groups D0 to D2 show a similar trend of increasing body weights.

[2] = Serum silibinin concentration in SD rats by HPLC; type: in vivo, rat
Procedure: as §1
After administration for 5, 15, 30, 60, 120, 360, 720, and 1440 minutes, 0.5 mL of blood samples are collected. The blood samples stand at room temperature for coagulation, followed by centrifugation to obtain serum. High-performance liquid chromatography (HPLC) is performed to analyze serum silibinin concentration.

[3] = Solubility in solutions mimicking blood (pH 7.4) and stomach (pH 1.2); type: physicochemical; conditions: pH 7.4, after 120 minutes
Excerpt: A solution with pH 7.4 mimics the environment of the blood and a solution with pH 1.2 mimics the environment of the stomach.
That is, compared with the conventional silibinin, the silibinin nanoparticle of the invention has improved blood solubility.

[4] = Tissue silibinin concentration in SD rats 24 hours after administration by HPLC; type: in vivo, rat
Procedure: as §1
Furthermore, after being administered silibinin or silibinin nanoparticle for 24 hours, the SD rats of groups E1 and E2 are dissected and organs of heart, liver, spleen, lung, and kidney are collected. The collected organs are homogenized by a saline buffer, followed by extraction of silibinin with acetonitrile. The extracted silibinin is analyzed by HPLC.

[5] = 100 mg/kg silibinin (nanoparticle 200 mg/kg with 100 mg of silibinin)

Compound	HCVcc infectivity (hepatitis C virus; 72 hours, dissolved in DMSO)	safe dosage (as silibinin content) [1]	highest level of serum silibinin concentration [2, 5]	time to highest level of serum silibinin concentration [2, 5]	concentration at 1440 minutes ([2]; male, Sprague-Dawley, rat, serum, 100 mg/kg body weight/day, 1440 minutes after administration)	dissolution in solution mimicking the environment of the blood [3]	tissue distribution of silibinin (heart, liver, spleen, lung, kidney) [4]	HCVcc infectivity (hepatitis C virus; 72 hours treatment)
COc1cc(C2Oc3cc(C4Oc5cc(O)cc(O)c5C(=O)C4O)ccc3OC2CO)ccc1O (centres unmarked) [silibinin, 3,5,7-trihydroxy-2-[3-(4-hydroxy-3-methoxyphenyl)-2-(hydroxymethyl)-2,3-dihydro-1,4-benzodioxin-6-yl]-2,3-dihydrochromen-4-one]	4.9 log10 RLU	5 mg/kg body weight per day	170 ng/mL	15 min	0 ng/mL	cannot dissolve	silibinin only exists in the lung	–
IFN-α	–	–	–	–	–	–	–	4.2 log10 RLU
